Counter-ions that a name gives are not always drawn.

In assay [1] the test system is K562S (doxorubicin-sensitive K562) chronic myelogenous leukemia cells. The assay is described as follows: MTS cell viability assay, K562S cells. The settings on record: Homo sapiens, K562, 48 h exposure, n = 3. In kind it is cell-based, human. As for the experimental part:
K562 (ATCC®, CCL-243, described here as K562S to indicate sensitivity to doxorubicin), a human chronic myelogenous leukemia cell line, was obtained from American Type Culture Collection (Manassas, VA, USA). A doxorubicin-resistant cell line (K562R, also known as K562/Adr) was kindly provided by the IRSET institute (Research Institute for Environmental and Occupational Health, INSERM, University of Rennes 1, France). The cells were maintained at 37 °C and 5% CO2 in Gibco™ 1640 Roswell Park Memorial Institute (RPMI-1640) medium containing 10% fetal bovine serum (FBS) (Life Technologies^TM, Thermo Fisher Scientific, Waltham, MA, USA).
Cell viability was evaluated with the MTS (3-(4,5-dimethylthiazol-2-yl)-5-(3-carboxymethoxyphenyl)-2-(4-sulfophenyl)-2H-tetrazolium) reduction kit, (CellTiter 96 Aqueous Non-Radioactive Cell Proliferation Assay, Promega, Fitchburg, WI, USA), according to the instructions of the manufacturer. […] Further details on experimental conditions used can be found in Delehouzé et al. 2017 [47].

Assay [2] has as its system phospho-ERK1/2 (Thr202/Tyr204). Kind of assay: Immunoblot of phospho-ERK1/2 in K562S cells. Type of assay: cell-based, human. The conditions noted are these: 20 µM, 6 h treatment, ImageJ band quantification. As for the experimental part:
The concentration of DMSO in the culture medium was 1%. Cell lysates were prepared by sonication of the cells in homogenization buffer with 0.5% of nonidet P-40 non-ionic detergent (NP-40) as described previously. SDS-PAGE and immunoblotting were performed following standard procedures. Anti-α-tubulin antibody (clone B512, T5168, 1:5000) was purchased from Sigma Aldrich (St. Louis, MO, USA). The anti-phospho-p44/42 MAPK (#28733–1-AP, 1:2000) was purchased from Proteintech® (Rosemont, IL, USA). This rabbit polyclonal antibody detects p44 and p42 MAPK when doubly phosphorylated (at Thr202 and Tyr204 of p44 and at Thr185 and Tyr187 of p42 MAPK).
In general terms: In western blotting, separated proteins are transferred to a membrane and probed.

Regarding `COc1cccc2c1C(=O)c1c(O)c3c(c(O)c1C2=O)C[C@@](O)(C(=O)CO)C[C@@H]3O[C@H]1C[C@H](N)[C@H](O)[C@H](C)O1` [Doxorubicin, reference compound], the half-maximal inhibitory concentration (IC50) (in general, the midpoint of a concentration-inhibition curve) in assay [1] worked out at 590 nM. For `Cc1ccc(NC(=O)c2ccc(CN3CCN(C)CC3)cc2)cc1Nc1nccc(-c2cccnc2)n1` [imatinib mesylate, reference compound], the “%pERK/Tubulin” value in assay [2] was 1.5%.

The values above are taken from paper PMC8347092, “Betulin, a Newly Characterized Compound in Acacia auriculiformis Bark, Is a Multi-Target Protein Kinase Inhibitor” (Molecules, 2021).
